# How the values were obtained:
# [1] = tested on: STAT1 phosphorylation (Ser727, Tyr701); assay: Immunoblot of STAT1 phosphorylation in IFN-γ-stimulated PBMC-derived macrophages; assay type: cell-based, human; details: pre-treatment two hours, 60 minutes of IFN-γ stimulation, vs DMSO
# Description: FIGS. 3A-3F show RSK1 is activated through JAK signaling and its inhibition suppresses STAT1 phosphorylation at Ser727 in human primary macrophages in response to IFN-γ. (FIG. 3A) PBMC-derived macrophages were pre-treated with DMSO or 10 μM a pan-JAK inhibitor, pyridone-6, for two hours and then stimulated with IFN-γ for indicated time under serum starvation. Cell lysates were subjected to immunoprecipitation with normal IgG or anti-RSK1 followed by immunoblot analysis using the indicated antibodies. WCL, whole cell lysate. N=3 donors. (FIG. 3B) Immunoblots of cell lysates from macrophages that were transfected with control siRNA or RSK1 siRNA followed by stimulation with IFN-γ for indicated time under serum starvation. N=2 donors. (FIG. 3C) Immunoblots of cell lysates from macrophages that were pre-treated with DMSO or BI-D1870 for two hours and subsequently left unstimulated or stimulated with IFN-γ for 1 hour under serum starvation. (FIG. 3D) Densitometric based quantification (ImageJ Software) of STAT1-pSer727 in panel (FIG. 3C) plus three additional donors. The phosphorylation levels in cells pretreated with DMSO and stimulated were defined as 1.0. Data are means±SE. N=6 donors. **P<0.01 indicate significance for phosphorylation levels compared to control (treatment with DMSO and IFN-γ) by Dunnett's comparison test. (FIG. 3E) Macrophages were treated with DMSO or BI-d1870 for two hours followed by IFN-γ stimulation under serum starvation. Cell lysates were subjected to immunoprecipitation with normal IgG or anti-STAT1-pSer727 followed by SYPRO ruby stain or immunoblot analysis with the indicated antibodies. Immunoprecipitants in the gel (red square) were in-gel digested for parallel reaction monitoring (PRM) mass spectrometry. (FIG. 3F) Quantification of PRM ions (MS/MS ions) of the indicated STAT1 peptide harboring a phosphorylation at Ser727 (and oxidized methionine, m), generated from the digest of panel […].
# Cell culture of human PBMC-derived primary macrophages. […]
# [2] = tested on: IFN-γ-induced chemokine mRNA; assay: Real-time PCR of IFN-γ-induced genes in PBMC-derived macrophages; assay type: cell-based, human; details: 1 or 10 μM for two hours, then IFN-γ eight hours, vs DMSO
# Description: FIGS. 4A-D show silencing RSK1 suppresses IFN-γ-induced chemokines in human primary macrophages. (FIG. 4A and FIG. 4B) Human PBMC-derived macrophages were treated with control siRNA or RSK1 siRNA followed by treatment with IFN-γ for the indicated time. Total RNA samples were subjected to real-time PCR analysis using the indicated probes and primers. GAPDH was used for normalization. (FIG. 4A) Representative results from one donor. Data are means±SD. (FIG. 4B) Quantification of the area-under-the-curve (AUC) plots of the real-time PCR data in panel (FIG. 4A). Data are means±SE. N=3 donors. *P<0.05 and **P<0.01 indicate significance for AUC of mRNA levels by paired Student's test. (FIG. 4C) Macrophages were treated with DMSO or BI-D1870 (1 or 10 μM) for two hours followed by stimulation with IFN-γ for eight hours. Total RNA samples were subjected to real-time PCR analysis using the indicated probes and primers. GAPDH was used for normalization. Data are means±SE. N=3-4 donors. *P<0.05 and **P<0.01 indicate significance for mRNA levels compared to control (treatment with DMSO and IFN-γ) by Dunnett's comparison test. […] Secreted chemokine levels were measured using ELISA. […]
# Real-time PCR. […] The mRNA levels were determined by TaqMan-based real-time PCR reactions (Thermo Fisher Scientific). […] Data were normalized by human GAPDH and then calculated using the delta-delta Ct method.
compound,measurement,setting,value
CC(C)CCN1c2nc(Nc3cc(F)c(O)c(F)c3)ncc2N(C)C(=O)C1C (stereo not drawn) [BI-D1870],phospho-STAT1-Ser727 signal,[1],attenuated signal
same,phospho-STAT-Tyr701 signal,[1],no change
same,mRNA levels of pro-inflammatory chemokines such as CCL2/MCP-1,[2],attenuated
